# Values joined by “and” are separate entries in the source; they are usually repeats but may differ in a detail not shown here. Equal entries are not always repeated.
# Columns and labels:
# [1] = MTT cytotoxicity assay, MDBK; type: cell-based; conditions: cattle, MDBK cells, 24-hour incubation
# Protocol: Cellular cytotoxicity profile of the compounds was carried out against a panel of cell lines. Standard MTT assays were performed in 96-well plates using the Promega CellTiter96 Non-radioactive Cell Proliferation Assay Kit in conjunction with a 96-well Plate Reader (ThermoMax, Molecular devices), and MDBK, Vero, and HFF cell lines (obtained from ATCC). Several controls were employed including the nucleoside analogs 3TC, AZT, and ddC, as well as, media without drugs. SDS was used as a positive cytotoxic control. The compounds were tested in triplicate at concentrations of 100, 300, and 1000 μM. Following a 24-hour incubation of cells with the test substance, the MTT assay was carried out.
# [2] = 14 day tolerability study in uPA SCID (KMT) mouse; type: in vivo; conditions: for tolerability: 300 mg/kg once a day by oral gavage for 14 days, KMT mice
# Protocol: Two separate groups of animals were treated with vehicle control or with a daily drug dose of 300 mg/kg for 14 days. Blood samples were taken 15 minutes after the drug doses on Day 1 (first dose), Day 7 and Day 14 (last dose) for measurement of the concentration of the drug in the serum of study animals. Body weights and health index scores were monitored daily in order to assess tolerance of the study animals to the dosing procedure and the drug. […] The solution was used to dose animals in a volume of 7.5 ml/kg. The citric acid buffer was also used for dosing of the vehicle control animals.
# Ten KMT transgenic animals with low engraftment of human liver cells (hAAT values less than 20 at 6 weeks) were allocated to this study. Individual body weights of animals were recorded prior to treatment and daily during the study. Animals were also evaluated once a day (at morning dose administration) for clinical signs and monitored for morbidity and mortality. The study animals were allocated into 2 groups of 5 animals. Compound 2 or citric acid vehicle control were administered once a day by oral gavage employing a sterile syringe and feeding needle for each animal. Dosing volume was 7.5 mL/kg (150 μL/20 grams body weight) for all groups. The volume was adjusted based on the daily body weight of each individual animal. […] The study started on Day 1 with the first drug dose administered in the morning and continued up to Day 14, the last day of drug treatment. Blood was collected via the central tail artery from all animals of each group on Day 1, fifteen minutes after the first drug dose, on Day 7, fifteen minutes after the drug dose, and on Day 14, fifteen minutes after the last drug dose. The blood samples were allowed to clot and the serum removed from above the clot pellet. Serum samples were stored at −80° C. prior to shipment to the study client. […]
# Individual body weights of the animals were recorded prior to treatment and daily during the course of the study. The animals were also evaluated daily for clinical signs and monitored for morbidity and mortality. […]
# WP2 uvrA = assay: In vitro bacterial mutagenicity assay (pre-incubation), strain WP2 uvrA; conditions: for Number of revertants x1, x2, x3: individual plates
# Protocol: Dispense 100 microliter aliquots of the appropriate bacterial cultures into sample tubes stored on ice. Dispense aliquots of the vehicle, positive controls or dose formulations into the appropriate sample tubes. 2 mL top Agar and HBT cap was added to the sample tube, inverted three times and poured into MG plate. The lid was replaced on the plate and left on a level surface to let the agar harden. The plates were incubated in an incubator for 48 to 72 h. The background lawn and count the number of revertants was checked for each plate.
smiles,measurement,setting,value
"COC1C(OP(=O)(OC[C@H]2O[C@@H](n3cnc4c(N)ncnc43)CC2O)SCOC(=O)OC(C)C)[C@@H](CO)O[C@H]1n1ccc(=O)[nH]c1=O (stereo partly drawn) [Compound 2, S-isopropylcarbonyloxymethyl thiophosphate (6k) of 3′dApsU2′OMe]",CC50 at 24 h,[1],> 1000 µM
same,body weight change,"[2]; 300 mg/kg daily, Day 1 to Day 14, one animal in the drug group (F187)",small decrease in body weight
same,tolerability,[2],generally well tolerated
same,tolerability,[2]; listed as drug,well tolerated
same,Number of revertants mean,"WP2 uvrA; absence of S9, 50 μg/plate",41
same,"Number of revertants x1, x2, x3","WP2 uvrA; absence of S9, 50 μg/plate",34 and 43 and 45
same,Number of revertants mean,"WP2 uvrA; absence of S9, 158 μg/plate",42
same,"Number of revertants x1, x2, x3","WP2 uvrA; absence of S9, 158 μg/plate",49 and 44 and 33
same,Number of revertants mean,"WP2 uvrA; absence of S9, 500 μg/plate",34
same,"Number of revertants x1, x2, x3","WP2 uvrA; absence of S9, 500 μg/plate",39 and 26 and 38
same,Number of revertants mean,"WP2 uvrA; absence of S9, 1581 μg/plate",50
same,"Number of revertants x1, x2, x3","WP2 uvrA; absence of S9, 1581 μg/plate",44 and 56 and 51
same,Number of revertants mean,"WP2 uvrA; absence of S9, 5000 μg/plate",52
same,"Number of revertants x1, x2, x3","WP2 uvrA; absence of S9, 5000 μg/plate",62 and 39 and 54
same,Number of revertants mean,"WP2 uvrA; presence of S9, 50 μg/plate",44
same,"Number of revertants x1, x2, x3","WP2 uvrA; presence of S9, 50 μg/plate",48 and 43 and 42
same,Number of revertants mean,"WP2 uvrA; presence of S9, 158 μg/plate",43
same,"Number of revertants x1, x2, x3","WP2 uvrA; presence of S9, 158 μg/plate",46 and 43 and 40
same,Number of revertants mean,"WP2 uvrA; presence of S9, 500 μg/plate",41
same,"Number of revertants x1, x2, x3","WP2 uvrA; presence of S9, 500 μg/plate",36 and 46 and 40
same,Number of revertants mean,"WP2 uvrA; presence of S9, 1581 μg/plate",47
same,"Number of revertants x1, x2, x3","WP2 uvrA; presence of S9, 1581 μg/plate",52 and 43 and 45
same,Number of revertants mean,"WP2 uvrA; presence of S9, 5000 μg/plate",62
same,"Number of revertants x1, x2, x3","WP2 uvrA; presence of S9, 5000 μg/plate",61 and 60 and 65

# — US8404651B2, “Compositions and methods for treating viral infections” (priority 2008, dated 2013)
